Patent US20020004493A1, “Method for the treatment of apolipoprotein E related diseases” (priority 1996, published 2002)

Test system: toxic apoE fragments (22 kDa) on embryonic chick sympathetic neurons
Test: Protection of sympathetic neurons against toxic apoE fragments (vital dye survival count)
Type: cell-based, chicken
Details: 10 min pre-incubation with compound, then toxic 22 kDa apoE fragments, overnight, read-out: C50, the concentration required to prevent 50% cell death as compared to control
Description: The purified apoE was then digested with thrombin and the resulting fragments separated by HPLC gel filtration chromatography (Bio SEC-Bio Rad). After buffer exchange and lyophilization, the purified 22 kDa fragment was subjected to amino acid analysis. For neurotoxicity studies, lumbar sympathetic chain ganglia were isolated from embryonic day nine chicken embryos (Spafas, Inc., Roanoke, Ill.) under sterile conditions in unsupplemented Ham's F12 medium (Sigma). The dissected chains were exposed to trypsin (0.25%) for 20 minutes at 37° C. The trypsin was inactivated by addition of fetal bovine serum. The chains were washed three times with medium and then triturated with flamed Pasteur pipettes to dissociate the cells. The cells were resuspended in Neurobasal medium (Gibco) and plated into 96-well plates pretreated with poly-ornithine. Dishes were incubated at 37° C. with 5% CO2/95% air. Following overnight incubation, the cells were treated with a range of concentrations of various compounds diluted in F12 medium supplemented with 100 μM putrescine, 20 nM progesterone, 100 μg/ml human transferrin, 30 nM selenium and 1% antibiotics (penicillin-streptomycin). The neuronal cells were pre-incubated for 10 min at 37° C. with a predetermined concentration of compound. The toxic fragments were then added to the culture medium while controls used the corresponding vehicle without the toxic fragments. After overnight incubation, the cells were labeled with a vital dye (5-carboxyfluorescein diacetate, acetoxymethyl ester, Molecular Probes, Eugene, Oreg.) for 30 minutes. The wells were washed with fresh F12 medium and images of the stained cells were collected from each well using a Diaphot inverted fluorescence microscope connected to a MacIntosh IIfx computer equipped with a Framegrabber video card.

In order of falling EC50:
1. Cc1cc(-c2ccc(N=Nc3cc(S(=O)(=O)O)c4ccccc4c3N)c(C)c2)ccc1N=Nc1cc(S(=O)(=O)O)c2ccccc2c1N [benzopurpurin 4b]  50 µM
2. O=S(=O)(O)c1ccccc1N=Nc1c(S(=O)(=O)O)cc2cc(S(=O)(=O)O)c(N=Nc3ccccc3S(=O)(=O)O)c(O)c2c1O [sulfonazo III]  45 µM
3. CCOc1ccc(Nc2ccc(C(=C3C=CC(=[N+](CC)Cc4cccc(S(=O)(=O)[O-])c4)C=C3C)c3ccc(N(CC)Cc4cccc(S(=O)(=O)O)c4)cc3C)cc2)cc1 [Coomassie brilliant blue G-250]  40 µM
4. O=S(=O)(O)c1ccc(N=Nc2ccc(N=Nc3c(O)ccc4ccccc34)c(S(=O)(=O)O)c2)cc1 [biebrich scarlet]  40 µM
5. CCN(Cc1cccc(S(=O)(=O)O)c1)c1ccc(C(=C2C=CC(=[N+](CC)Cc3cccc(S(=O)(=O)[O-])c3)C=C2)c2ccc(S(=O)(=O)O)cc2)cc1 [light green S.F. yellowish]  40 µM
6. CCOc1ccc(Nc2ccc(C(=C3C=CC(=[N+](CC)Cc4cccc(S(=O)(=O)[O-])c4)C=C3)c3ccc(N(CC)Cc4cccc(S(=O)(=O)O)c4)cc3)cc2)cc1 [Coomassie brilliant blue R-250]  35 µM
7. O=S(=O)(O)c1ccc2c(N=Nc3ccc(S(=O)(=O)O)c4ccccc34)c(O)c(S(=O)(=O)O)cc2c1 [amaranth]  25 µM
8. Cc1c(C2(c3cc(Br)c(O)c(Br)c3C)OS(=O)(=O)c3ccccc32)cc(Br)c(O)c1Br [bromocresol green]  25 µM
9. Cc1ccc2nc(-c3ccc(N=NNc4ccc(-c5nc6ccc(C)c(S(=O)(=O)O)c6s5)cc4)cc3)sc2c1S(=O)(=O)O [thiazol yellow G]  25 µM
10. aniline blue  25 µM
11. O=S(=O)(O)c1ccc(N=C2C=CC(=C(c3ccc(Nc4ccc(S(=O)(=O)O)cc4)cc3)c3ccc(Nc4ccc(S(=O)(=O)O)cc4)cc3)C=C2)cc1 [methyl blue]  20 µM
12. COc1cc(-c2ccc(N=Nc3c(S(=O)(=O)O)cc4cc(S(=O)(=O)O)cc(N)c4c3O)c(OC)c2)ccc1N=Nc1c(S(=O)(=O)O)cc2cc(S(=O)(=O)O)cc(N)c2c1O [direct blue 15]  18 µM
13. O=S1(=O)OC(c2cc(Br)c(O)c(Br)c2)(c2cc(Br)c(O)c(Br)c2)c2ccccc21 [bromophenol blue]  16 µM
14. COc1cc(-c2ccc(N=Nc3ccc4c(S(=O)(=O)O)cc(S(=O)(=O)O)c(N)c4c3O)c(OC)c2)ccc1N=Nc1ccc2c(S(=O)(=O)O)cc(S(=O)(=O)O)c(N)c2c1O [Chicago sky blue 6b]  15 µM
15. O=C(O)c1cc2ccccc2c(N=Nc2c(O)cc(S(=O)(=O)O)c3ccccc23)c1O [calconcarboxylic acid]  10 µM
16. Cc1cc(-c2ccc(N=Nc3ccc4c(S(=O)(=O)O)cc(S(=O)(=O)O)c(N)c4c3O)c(C)c2)ccc1N=Nc1ccc2c(S(=O)(=O)O)cc(S(=O)(=O)O)c(N)c2c1O [Evan's blue]  8 µM
17. O=S(=O)(O)c1ccc(N=Nc2ccc(N=Nc3c(O)c(S(=O)(=O)O)cc4cc(S(=O)(=O)O)ccc34)c(S(=O)(=O)O)c2)cc1 [ponceau S]  5 µM
18. pentosan sulfate [reference compound]  1.5 µM
19. heparan sulfate  1 µM
20. dextran sulfate [dextran sulfate (5 kDa)]  0.8 µM
21. potassium polyvinyl sulfate  0.035 µM

Same assay, conditions: Gallus gallus, Sympathetic neuron, 10 min pre-incubation with compound, then toxic 22 kDa apoE fragments, overnight, read-out: C50, the concentration required to prevent 50% cell death as compared to control

In order of falling EC50:
1. O=C1OC(c2ccc(O)c(S(=O)(=O)O)c2)(c2ccc(O)c(S(=O)(=O)O)c2)c2c(Br)c(Br)c(Br)c(Br)c21 [sulfobromophthalein]  32 µM
2. Nc1c(/N=N/c2ccc(-c3ccc(/N=N/c4cc(S(=O)(=O)O)c5ccccc5c4N)cc3)cc2)cc(S(=O)(=O)O)c2ccccc12 [congo red]  25 µM
3. Nc1c(S(=O)(=O)O)cc(Nc2ccc(Nc3nc(Cl)nc(Nc4ccccc4S(=O)(=O)O)n3)c(S(=O)(=O)O)c2)c2c1C(=O)c1ccccc1C2=O [cibacron blue]  20 µM
4. Cc1cc(-c2ccc(/N=N/c3c(S(=O)(=O)O)cc4cc(S(=O)(=O)O)cc(N)c4c3O)c(C)c2)ccc1/N=N/c1c(S(=O)(=O)O)cc2cc(S(=O)(=O)O)cc(N)c2c1O [trypan blue]  20 µM
5. O=C(O)C1=CC(=C(c2ccc(O)c(C(=O)O)c2)c2ccc(O)c(C(=O)O)c2)C=CC1=O [aurintricarboxylic acid]  11 µM
6. Cc1ccc(C(=O)Nc2ccc(S(=O)(=O)O)c3cc(S(=O)(=O)O)cc(S(=O)(=O)O)c23)cc1NC(=O)c1cccc(NC(=O)Nc2cccc(C(=O)Nc3cc(C(=O)Nc4ccc(S(=O)(=O)O)c5cc(S(=O)(=O)O)cc(S(=O)(=O)O)c45)ccc3C)c2)c1 [suramin sodium, reference compound]  5 µM

Test system: apoE peptide toxicity (141-149 domain)
Test: not given
Details: peptide with second heparin-binding site, lacking the 141-149 sequence; cited from earlier work

In the case of “E211-243: apoE peptide containing a second heparin-binding site but lacking the 141-149 sequence (GERLRARMEEMGSRTRDRLDEVKEQVAEVRAKL; UniProt P02649 229-261, looked up, fragment) [reference compound]”, the “bioactivity (toxicity) of apoE peptide” value is given as “inactive”.

Same assay, conditions: polyanionic glycosaminoglycans; cited from earlier work

In the case of chondroitin sulfate, the “effect on apoE peptide-mediated toxicity” value is listed as “ablation of peptide-mediated toxicity”.
In the case of heparan sulfate, the “effect on apoE peptide-mediated toxicity” value is given as “ablation of peptide-mediated toxicity”.
In the case of heparin [reference compound], the “effect on apoE peptide-mediated toxicity” value is listed as “ablation of peptide-mediated toxicity”.

Test system: E3- or E4-derived 22 kDa apoE fragment on embryonic chick sympathetic neurons
Test: Effects of apoE 22 kDa peptides on sympathetic neurons in culture, with dermatan sulfate pre-incubation
Type: cell-based, chicken
Details: 4 μM dermatan sulfate, 10 min pre-incubation; overnight exposure to E3- or E4-derived 22 kDa fragment
Experimental: Since the 22 kDa fragment contains the domain associated with toxicity and corresponds to the major N-terminal proteolytic fragment of apoE, assessment of the efficacy of a compound can first be screened by measuring the inhibition of the 22 kDa toxicity in vitro. The 22 kDa thrombolytic cleavage fragment product of apoE is neurotoxic and is purified from medium of HEK cells transfected with the gene for human apoE4. Neuronal toxicity is then assessed using dissociated embryonic chick sympathetic neurons in 96 well microtiter plates. Following the addition of the fragments, the cultures are incubated overnight. Viability is then assessed by vital dye staining.
Transfected HEK cells are cultured as previously described (LaDu, M. J., et al., J. Biol. Chem. 258:12348-54 (1983)). The apoE is concentrated from conditioned medium by ultrafiltration (10 kDa cut-off membrane, Amicon) followed by heparin column chromatography (heparin-coupled agarose beads, Sigma). […] The wells are washed with fresh F12 medium and images of the stained cells are collected from each well by using a Diaphot inverted fluorescence microscope connected to a Macintosh IIfx computer equipped with a Framegrabber video card. The number of labeled neurons is quantified from the stored images with NIH Image software (version 1.57).

In the case of dermatan sulfate, the “toxicity of 22 kDa apoE fragment in treated neurons” value is reported as “toxicity is completely ablated”.
